What was measured:
SELH protein degradation = SELH protein degradation (Homo sapiens (Human), UniProt Q8IZQ5)
Text: (§2) A cycloheximide (CHX) chase assay was completed to assess ISP I's effect on SELH protein degradation.

SELH (Sec44→Cys44) = SELH (Sec44→Cys44) (Homo sapiens, UniProt Q8IZQ5, U44C); assay: SPR assay of ISP I with SELH synthesized in bacteria; format: binding
Text: Next, the inventors used a thermo-stability assay to confirm SELH was targeted by ISP I in LN229 and 786-O cell lines. The principle of the assay is based on altered protein thermal stabilization/destabilization due to ligand binding in living cells. […] (FIG. 11B and FIG. 12A). To verify further the specificity of ISP I's targeting of SELH, the inventors designed a surface plasmon resonance assay to assess the interaction of ISP I with SELH synthesized in bacteria.
The affinities constant (KD) and kinetics (ka and kd) of ISP I binding to SELH (Sec44→Cys44) were assayed using Biacore 8K (GE Healthcare, Sweden), all at 25° C. […] Coupling conditions were determined by protein isoelectric points. […]
To determine the binding affinity between ISP I and SELH (Sec44→Cys44), a series of ISP I dilutions was analyzed by single-cycle kinetics. […] The ISP I at various gradient concentrations and one zero concentration (running buffer) flowed over the immobilized SELH, with 120 s for binding, followed by disassociation for 120 s, and the obtained response units (RUs) were recorded. The RU values were collected, and the binding affinity data were calculated by kinetic models (1:1 interaction) within Biacore 8K Evaluation Software. The equilibrium dissociation constant (KD) was calculated to evaluate the ability of ISP I to interact with SELH.

SELH protein expression = SELH protein expression (Homo sapiens (Human), UniProt Q8IZQ5); assay: Western blot of SELH protein in ISP I-treated cells; format: cell-based
Text: as §2

786-O and RCC4 cells = assay: Cell cycle analysis by flow cytometry, RCC cells; format: cell-based
Protocol: Cell viability was assessed similarly via CKK8 analysis. […] (FIG. 10C, D).
(§1) For monitoring cell-cycle arrest of ISP I-treated cells, Click-iT EdU Flow Cytometry Assay Kits were used, a product of ThermoFisher Scientific. Cells were co-cultured with EdU at a concentration of 10 μM for 1 hour. After fixation and permeabilization, EdU-positive cells were labeled with Alexa Fluor 647 fluorescein. DAPI also was used for measuring total DNA content to identify differences in cell cycle phases. Data were collected by means of a BD LSRFortessa flow cytometer using FlowJo software. Cells that are positive with EdU and DAPI were in S-Phase of the cell cycle.

LN229 and U251 cells = assay: Cell cycle analysis by flow cytometry (EdU and DAPI), glioblastoma cells; format: cell-based; conditions: LN229 and U251, compared with control cells
Protocol: as §1

[1] = test system: SELH-deficient LN229 cells and RCC cells (786-O and RCC4); assay: CCK8 assay in SELH-deficient (CRISPR/CAS9) cells; format: cell-based; conditions: CCK8, compared to wild-type cells
Text: SELH knockout LN229 cell lines and B16 were generated using the CRISPR/Cas9 technique described by Shalem et al., Science 343: 84 (2014). The gDNA for targeting SELH was designed as follows: Oligo 1, 5′-[…]-3′; Oligo 2, 5′-[…]-3′; the gDNA for targeting mouse SELH was designed as follows: Oligo 1, 5′-[…]-3′; Oligo 2, 5′-[…]-3′, and subcloned into Cas9 carrying vector (pX330). The two resultant plasmids and puromycin-expressing vector (pPGK-puro) were co-transfected at a ratio of 1:1:1 into LN229 or B16 cells using Lipofectamine 2000 (Invitrogen). Twenty-four hours later, the transfected cells were subjected to puromycin (Sigma) at 1 μg/mL for 7 days. One week after selection, the surviving clones were expanded, followed by extraction of total protein for standard western blotting analysis.

Sequence of SELH protein expression (Q8IZQ5 whole entry): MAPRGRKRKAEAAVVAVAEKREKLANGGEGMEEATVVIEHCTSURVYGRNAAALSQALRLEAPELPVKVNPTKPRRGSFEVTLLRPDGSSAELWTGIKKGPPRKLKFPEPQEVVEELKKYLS
Sequence of SELH (Sec44→Cys44) (Q8IZQ5 with tags, fused parts or gaps U44C): as the sequence (Q8IZQ5 whole entry) above, with U44C counted along it
Sequence of SELH protein degradation (Q8IZQ5 whole entry): as the sequence (Q8IZQ5 whole entry) above

Compound: CO[C@@H]1[C@@H](O[C@@H]2O[C@H](C)[C@@H](O[C@H]3C[C@@](C)(O)[C@@H](OC(=O)CC(C)C)[C@H](C)O3)[C@H](N(C)C)[C@H]2O)[C@@H](CC=O)C[C@@H](C)[C@@H](O[C@H]2CC[C@H](N(C)C)[C@@H](C)O2)/C=C/C=C/C[C@@H](C)OC(=O)C[C@H]1O [Isovalerylspiramycin I, 4″-isovalerylspiramycin I]
- SELH protein half-life (SELH protein degradation): reduced the SELH protein half-life
- binding to SELH versus other proteins (SELH (Sec44→Cys44)): tightly binds to SELH but does not bind with the other proteins
- SELH protein expression (SELH protein expression; LN229 cells, different concentrations of ISP I): reduced SELH protein expression in LN229 cells in a dose-dependent manner
- SELH levels in glioblastoma cell lines (SELH protein expression; T98G, U118, LN229, U251, 10 μg/mL of ISP I for 24 hours): decreased SELH levels
- cell-cycle arrest (786-O and RCC4 cells): induced cell-cycle arrest in the G0/G1 phase
- cell distribution in cell cycle phases (LN229 and U251 cells): dose-dependent increase in the G0/G1 phase and a decrease in the S phase
- response of SELH-deficient cells to treatment [1]: SELH-deficient cells were resistant to ISP I treatment

Source: patent US20240118263A1, “TARGET FOR SCREENING ANTI-TUMOR DRUG, USE THEREOF AND SCREENING METHOD THEREFOR” (SHENYANG FUYANG PHARMACEUTICAL TECHNOLOGY CO., LTD., priority 2019, published 2024)
